In ChEMBL document CHEMBL3885881, “DrugMatrix”:

Species: Rattus norvegicus
Test: DrugMatrix - Regimen: Daily Repeat
Type: toxicity, organism-based, Sprague-Dawley
Design: regimen Daily Repeat, gender Male, age 6-8 weeks
Conditions: in vivo, po, route oral GAVAGE, […]; for ABSOLUTE BASOPHIL / ABSOLUTE EOSINOPHIL / ABSOLUTE LYMPHOCYTE / ABSOLUTE MONOCYTE / ABSOLUTE SEGMENTED NEUTROPHIL / BASOPHIL / EOSINOPHIL / ERYTHROCYTE COUNT / HEMATOCRIT / HEMOGLOBIN / LEUKOCYTE COUNT / LYMPHOCYTE / MEAN CORPUSCULAR HEMOGLOBIN / MEAN CORPUSCULAR HEMOGLOBIN CONCENTRATION / MEAN CORPUSCULAR VOLUME / MONOCYTE / NEUTROPHIL / NUCLEATED RED BLOOD CELLS / PLATELET COUNT: tissue Blood; for ALANINE AMINOTRANSFERASE / ALBUMIN / ALKALINE PHOSPHATASE / ASPARTATE AMINOTRANSFERASE / BLOOD UREA NITROGEN / CARBON DIOXIDE / CHLORIDE / CHOLESTEROL / CREATINE PHOSPHOKINASE / CREATININE / GLUCOSE / LACTATE DEHYDROGENASE / LIPASE / PHOSPHORUS / POTASSIUM / SODIUM / TOTAL BILIRUBIN / TOTAL PROTEIN / URIC ACID: tissue Plasma
[1] = 0 mg/kg, 72 h, dose level Control, time 3 day
[2] = 0 mg/kg, 120 h, dose level Control, time 5 day
[3] = 100 mg/kg, 72 h, dose level Low, time 3 day

CC(C)(Oc1ccc(Cl)cc1)C(=O)O [CLOFIBRIC ACID]
ABSOLUTE BASOPHIL [1]: 0 CELLS/uL | ABSOLUTE EOSINOPHIL [1]: 0 CELLS/uL | ABSOLUTE LYMPHOCYTE [1]: 14687.67 CELLS/uL | ABSOLUTE MONOCYTE [1]: 164 CELLS/uL | ABSOLUTE SEGMENTED NEUTROPHIL [1]: 1748.33 CELLS/uL | BASOPHIL [1]: 0% | EOSINOPHIL [1]: 0% | ERYTHROCYTE COUNT [1]: 5.51 x10E6/uL | HEMATOCRIT [1]: 33.68% | HEMOGLOBIN [1]: 13.4 G/DL | LEUKOCYTE COUNT [1]: 16.6 x10E3/uL | LYMPHOCYTE [1]: 88.83% | MEAN CORPUSCULAR HEMOGLOBIN [1]: 24.47 pg | MEAN CORPUSCULAR HEMOGLOBIN CONCENTRATION [1]: 39.82 G/DL | MEAN CORPUSCULAR VOLUME [1]: 61.23 fL | MONOCYTE [1]: 0.83% | NEUTROPHIL [1]: 10.33% | NUCLEATED RED BLOOD CELLS [1]: 0 /100WBC | PLATELET COUNT [1]: 1329.67 x10E3/uL | ALANINE AMINOTRANSFERASE [1]: 61.33 u/L | ALBUMIN [1]: 4.18 G/DL | ALKALINE PHOSPHATASE [1]: 332.5 u/L | ASPARTATE AMINOTRANSFERASE [1]: 98.33 u/L | BLOOD UREA NITROGEN [1]: 15.83 mg/dL | CARBON DIOXIDE [1]: 27.83 mmol/L | CHLORIDE [1]: 100 MEQ/L | CHOLESTEROL [1]: 76.17 mg/dL | CREATINE PHOSPHOKINASE [1]: 729.17 u/L | CREATININE [1]: 0.21 mg/dL | GLUCOSE [1]: 151.83 mg/dL | LACTATE DEHYDROGENASE [1]: 484.67 u/L | LIPASE [1]: 10 u/L | PHOSPHORUS [1]: 11.3 mg/dL | POTASSIUM [1]: 6.1 MEQ/L | SODIUM [1]: 142.9 MEQ/L | TOTAL BILIRUBIN [1]: 0.23 mg/dL | TOTAL PROTEIN [1]: 5.68 G/DL | URIC ACID [1]: 1.75 mg/dL | ABSOLUTE BASOPHIL [2]: 0 CELLS/uL | ABSOLUTE EOSINOPHIL [2]: 58.67 CELLS/uL | ABSOLUTE LYMPHOCYTE [2]: 15950.83 CELLS/uL | ABSOLUTE MONOCYTE [2]: 172.5 CELLS/uL | ABSOLUTE SEGMENTED NEUTROPHIL [2]: 2551.33 CELLS/uL | BASOPHIL [2]: 0% | EOSINOPHIL [2]: 0.33% | ERYTHROCYTE COUNT [2]: 5.5 x10E6/uL | HEMATOCRIT [2]: 34.05% | HEMOGLOBIN [2]: 13.42 G/DL | LEUKOCYTE COUNT [2]: 18.73 x10E3/uL | LYMPHOCYTE [2]: 84.5% | MEAN CORPUSCULAR HEMOGLOBIN [2]: 24.42 pg | MEAN CORPUSCULAR HEMOGLOBIN CONCENTRATION [2]: 39.42 G/DL | MEAN CORPUSCULAR VOLUME [2]: 61.97 fL | MONOCYTE [2]: 1% | NEUTROPHIL [2]: 14.17% | NUCLEATED RED BLOOD CELLS [2]: 0.33 /100WBC | PLATELET COUNT [2]: 1143.17 x10E3/uL | ALANINE AMINOTRANSFERASE [2]: 57 u/L | ALBUMIN [2]: 4.17 G/DL | ALKALINE PHOSPHATASE [2]: 347.33 u/L | ASPARTATE AMINOTRANSFERASE [2]: 93.67 u/L | BLOOD UREA NITROGEN [2]: 15.67 mg/dL | CARBON DIOXIDE [2]: 27.17 mmol/L | CHLORIDE [2]: 104.33 MEQ/L | CHOLESTEROL [2]: 69.5 mg/dL | CREATINE PHOSPHOKINASE [2]: 317.17 u/L | CREATININE [2]: 0.2 mg/dL | GLUCOSE [2]: 162.33 mg/dL | LACTATE DEHYDROGENASE [2]: 408.67 u/L | LIPASE [2]: 10.17 u/L | PHOSPHORUS [2]: 11.08 mg/dL | POTASSIUM [2]: 6.36 MEQ/L | SODIUM [2]: 146.07 MEQ/L | TOTAL BILIRUBIN [2]: 0.22 mg/dL | TOTAL PROTEIN [2]: 5.92 G/DL | URIC ACID [2]: 1.47 mg/dL | ABSOLUTE BASOPHIL [3]: 0 CELLS/uL | ABSOLUTE EOSINOPHIL [3]: 83.33 CELLS/uL | ABSOLUTE LYMPHOCYTE [3]: 12714.67 CELLS/uL | ABSOLUTE MONOCYTE [3]: 127.67 CELLS/uL | ABSOLUTE SEGMENTED NEUTROPHIL [3]: 1507.67 CELLS/uL | BASOPHIL [3]: 0% | EOSINOPHIL [3]: 0.67% | ERYTHROCYTE COUNT [3]: 5.9 x10E6/uL | HEMATOCRIT [3]: 36.47% | HEMOGLOBIN [3]: 14.53 G/DL | LEUKOCYTE COUNT [3]: 14.43 x10E3/uL | LYMPHOCYTE [3]: 88% | MEAN CORPUSCULAR HEMOGLOBIN [3]: 24.67 pg | MEAN CORPUSCULAR HEMOGLOBIN CONCENTRATION [3]: 39.87 G/DL | MEAN CORPUSCULAR VOLUME [3]: 61.83 fL | MONOCYTE [3]: 1% | NEUTROPHIL [3]: 10.33% | NUCLEATED RED BLOOD CELLS [3]: 0 /100WBC | PLATELET COUNT [3]: 1176.67 x10E3/uL | ALANINE AMINOTRANSFERASE [3]: 51 u/L | ALBUMIN [3]: 4.33 G/DL | ALKALINE PHOSPHATASE [3]: 364.33 u/L | ASPARTATE AMINOTRANSFERASE [3]: 99.67 u/L | BLOOD UREA NITROGEN [3]: 17 mg/dL | CARBON DIOXIDE [3]: 27 mmol/L | CHLORIDE [3]: 96 MEQ/L | CHOLESTEROL [3]: 62 mg/dL | CREATINE PHOSPHOKINASE [3]: 636.33 u/L | CREATININE [3]: 0.34 mg/dL | GLUCOSE [3]: 180.67 mg/dL | LACTATE DEHYDROGENASE [3]: 303.67 u/L | LIPASE [3]: 9.33 u/L | PHOSPHORUS [3]: 11.9 mg/dL | POTASSIUM [3]: 5.92 MEQ/L | SODIUM [3]: 141 MEQ/L | TOTAL BILIRUBIN [3]: 0.1 mg/dL | TOTAL PROTEIN [3]: 5.8 G/DL | URIC ACID [3]: 2.07 mg/dL
